# Results as given in patent publication EP1290011B1 (Oncopeptides AB, priority 2000, dated 2001).
# Counter-ions that a name gives are not always drawn.
# Legend:
# [1] = system: U937vcr; assay: cells; format: cell-based, human; details: U937vcr, vincristine resistance; 72 hours incubation; read-out: IC50
# [2] = system: PHTC samples from 9 patients with hematological and 18 patients with solid tumours; assay: Circumvention of melphalan resistance: FMCA classification of PHTC samples as LDR, IDR, EDR; format: cell-based, human; details: tested at 4 µM
# [3] = system: hematological fresh human tumour specimens (PHTC); details: 0.66 µM; n=42; 4320 min
# [4] = system: Hematological tumours (PHTC); assay: FMCA in PHTC cultures, Table 4, hematological; details: 4 µM; n=7-11; 4320 min
# [5] = system: Solid tumours (PHTC); assay: FMCA in PHTC cultures, Table 4, solid; details: 4 µM; n=12-20; 4320 min
# [6] = system: CEM/R; assay: cells; format: cell-based, human; details: CEM/R; 72 hours incubation; read-out: IC50
# [7] = system: H69AR; assay: cells; format: cell-based, human; details: H69AR, doxorubicin resistance; 72 hours incubation; read-out: IC50
# [8] = system: CEM/S; assay: cells; format: cell-based, human; details: CEM/S; 72 hours incubation; read-out: IC50
# [9] = system: 8226Dox40; assay: cells; format: cell-based, human; details: 8226Dox40, doxorubicin resistance; 72 hours incubation; read-out: IC50
# [10] = system: fresh human tumour specimens; assay: FMCA cytotoxic activity in 27 fresh human tumour specimens (Figure 2); format: cell-based; details: 27 human tumour samples, 14 hematological and 13 solid, comparative statement
# [11] = system: RPMI 8322 melanoma cells; details: compared with the other peptides of PTC; cited from earlier work
# [12] = system: Corpus cancer; assay: Cytotoxic activity in different tumour models; format: cell-based, human; details: Number 4
# [13] = system: Breast cancer; assay: Cytotoxic activity in different tumour models; format: cell-based, human; details: Number 4
# [14] = system: ACHN; assay: cells; format: cell-based, human; details: ACHN, primary resistant renal carcinoma; 72 hours incubation; read-out: IC50
# [15] = system: solid tumour fresh human tumour specimens (PHTC); details: 0.66 µM; n=22; 4320 min
# [16] = system: 8226LR5; assay: cells; format: cell-based, human; details: 8226LR5, melphalan resistance; 72 hours incubation; read-out: IC50
# [17] = system: NSC Lung cancer; assay: Cytotoxic activity in different tumour models; format: cell-based, human; details: Number 8
# [18] = system: U937gtb; assay: cells; format: cell-based, human; details: U937gtb, lymphoma; 72 hours incubation; read-out: IC50
# [19] = system: primary cultures of human tumor cells from patients (PHTC), Total; assay: FMCA in PHTC cultures, Table 4, total; details: 4 µM; n=19-31; 4320 min
# [20] = system: Adeno-carcinoma; assay: Cytotoxic activity in different tumour models; format: cell-based, human; details: Number 5
# [21] = system: Ovarian carcinoma; assay: Cytotoxic activity in different tumour models; format: cell-based, human; details: Number 8
# [22] = system: 8226S; assay: cells; format: cell-based, human; details: 8226S, myeloma; 72 hours incubation; read-out: IC50
# [23] = system: H69; assay: cells; format: cell-based, human; details: H69, small cell lung cancer; 72 hours incubation; read-out: IC50
# [24] = system: Prostate cancer; assay: Cytotoxic activity in different tumour models; format: cell-based, human; details: Number 1
# [25] = system: panel of ten human tumour cell lines; assay: cells; format: cell-based; details: mean over the ten cell lines; read-out: MEAN IC50
# [26] = system: oxidative phosphorylation in mitochondria from rat liver homogenates and Jensen sarcoma cells; details: cited from earlier work
# [27] = system: sarcoma 45; details: rat, in vivo; cited from earlier work
structure (smiles),measurement,setting,value
"CCOC(=O)[C@H](Cc1ccc(F)cc1)NC(=O)[C@H](Cc1cccc(N(CCCl)CCCl)c1)NC(=O)[C@@H]1CCCN1 [Example P2, L-prolyl-m-L-sarcolysyl-p-L-fluorophenylalanine ethyl ester hydrochloride, reference compound]",IC50,[1],1790 nM
same,Number of samples EDR,[2]; Extreme drug resistance,1
same,Number of samples (%) EDR,"[2]; Extreme drug resistance, percent of samples",5%
same,Number of samples IDR,[2]; Intermediate drug resistance,4
same,Number of samples (%) IDR,"[2]; Intermediate drug resistance, percent of samples",21%
same,Number of samples LDR,[2]; Low drug resistance,14
same,Number of samples (%) LDR,"[2]; Low drug resistance, percent of samples",74%
same,Tumour cell survival index % Hematological,[3],34.7%
same,Tumour cell survival index (%) Hematological tumours,[4],7%
same,Tumour cell survival index (%) Solid tumours,[5],68.9%
same,IC50,[6],630 nM
same,IC50,[7],4.27 µM
same,IC50,[8],940 nM
same,IC50,[9],5.43 µM
same,IC50s (comparison),[10],more active than melphalan
same,cytotoxicity,[11],more toxic to RPMI 8322 melanoma cells than any of the other peptides
same,Median response at 4.0 µM >50% reduction in tumour cell survival,[12],No
same,Median response at 4.0 µM >50% reduction in tumour cell survival,[13],No
same,IC50,[14],4.59 µM
same,Tumour cell survival index % Solid,[15],86.0%
same,IC50,[16],7.4 µM
same,Median response at 4.0 µM >50% reduction in tumour cell survival,[17],No
same,IC50,[18],1780 nM
same,Tumour cell survival index (%) Total,[19],46.1%
same,Median response at 4.0 µM >50% reduction in tumour cell survival,[20],No
same,Median response at 4.0 µM >50% reduction in tumour cell survival,[21],No
same,IC50,[22],5.11 µM
same,IC50,[23],4.59 µM
same,Median response at 4.0 µM >50% reduction in tumour cell survival,[24],No
same,IC50,[25],3.35 µM
CC(C)[C@H](NC(=O)[C@@H](N)Cc1ccc(N(CCCl)CCCl)cc1)C(=O)O [L-melphalanyl-L-valine],oxidative phosphorylation,[26],disrupted oxidative phosphorylation
"CCOC(=O)[C@H](Cc1ccc(O)cc1)NC(=O)[C@H](Cc1ccc(N(CCCl)CCCl)cc1)NC(C)=O [astyron, N-acetyl-L-melphalanyl-L-tyrosine ethyl ester]",sarcoma 45 growth,[27],inhibited sarcoma 45 growth
